In brackets after ≈: the same amount, converted by molar mass. Like-named read-outs stand apart in the source and are kept apart here.
How the values were obtained:
[1] = tested on: Leishmania major; assay: in vitro growth inhibitory activity against L. major promastigotes; format: cell-based
Source text: 35, pp. 2198-2202 (1991).

[2] = tested on: Toxoplasma gondii; assay: growth inhibition of T. gondii in L929 host cells ([3H]-uracil incorporation); format: cell-based; conditions: Toxoplasma gondii
[3] = tested on: Toxoplasma gondii; assay: growth inhibition of T. gondii in HFF host cells ([3H]-uracil incorporation); format: cell-based; conditions: Toxoplasma gondii
[4] = tested on: Giardia lamblia; assay: in vitro growth inhibitory activity against Giardia lamblia; format: cell-based; conditions: Giardia duodenalis; concentration required to inhibit growth by 50%
Protocol: 35, pp. 2198-2202 (1991). EC50 values for test compounds, expressed in parts per million (ppm), were calculated from dose response curves and are presented in Table 4. As used herein, the terminology "EC50" means the concentration of test compound required to inhibit growth by 50% are compared to a control lacking the test compound. Metronidazole was included as a standard in the tests for comparative purposes.

[5] = tested on: Cryptosporidium parvum; assay: growth inhibitory activity against C. parvum in host MDBKF5D2 cells (immunofluorescence); format: cell-based; conditions: Cryptosporidium parvum, 48 h
[6] = tested on: Tetrahymena pyriformis; assay: in vitro growth inhibitory activity against the ciliate Tetrahymena pyriformis; format: cell-based, Tetrahymena pyriformis (ATCC strain 30005); conditions: read-out: EC50 Tetrahymena pyriformis
[7] = cytotoxicity towards L929 host cells (Cell Titer 96); conditions: mouse, % Inhibition of host cell growth (values in parenthesis)
[8] = cytotoxicity towards HFF host cells (Cell Titer 96); conditions: human, % Inhibition of host cell growth (values in parenthesis)
[9] = tested on: Entamoeba histolytica; assay: in vitro growth inhibitory activity against E. histolytica; format: cell-based
Source text: 35, pp. 2198-2202 (1991). Metronidazole was included as a standard in the test for comparative purposes.

[10] = L929, 24 h, L929 host cells, 0.5 μg/ml, 24 hours, read-out: % Inhibition
[11] = L929, 24 h, L929 host cells, 5.0 μg/ml, 24 hours, read-out: % Inhibition
[12] = L929, 48 h, L929 host cells, 0.5 μg/ml, 48 hours, read-out: % Inhibition
[13] = L929, 48 h, L929 host cells, 5.0 μg/ml, 48 hours, read-out: % Inhibition
[14] = L929, 72 h, L929 host cells, 0.5 μg/ml, 72 hours, read-out: % Inhibition
[15] = L929, 72 h, L929 host cells, 5.0 μg/ml, 72 hours, read-out: % Inhibition
[16] = 24 h, HFF host cells, 0.5 μg/ml, 24 hours, read-out: % Inhibition
[17] = 24 h, HFF host cells, 5.0 μg/ml, 24 hours, read-out: % Inhibition
[18] = 48 h, HFF host cells, 0.5 μg/ml, 48 hours, read-out: % Inhibition
[19] = 48 h, HFF host cells, 5.0 μg/ml, 48 hours, read-out: % Inhibition
[20] = 72 h, HFF host cells, 0.5 μg/ml, 72 hours, read-out: % Inhibition
[21] = 72 h, HFF host cells, 5.0 μg/ml, 72 hours, read-out: % Inhibition

## CCC(C)(NC(=O)c1cc(Cl)c(F)c(Cl)c1)C(=O)CCl (stereo not drawn) [Compound 9]
[1]
  EC50: 0.1 µg/mL (≈ 0.294 µM)
[2]; [10]
  inhibition at 0.5 µg/mL: 29%
[2]; [11]
  inhibition at 5 µg/mL: 28.2%
[2]; [12]
  inhibition at 0.5 µg/mL: 86.3%
[2]; [13]
  inhibition at 5 µg/mL: 77.3%
[2]; [14]
  inhibition at 0.5 µg/mL: 90.9%
[2]; [15]
  inhibition at 5 µg/mL: 95.6%
[3]; [16]
  inhibition at 0.5 µg/mL: 58.7%
[3]; [17]
  inhibition at 5 µg/mL: 74.3%
[3]; [18]
  inhibition at 0.5 µg/mL: 77.6%
[3]; [19]
  inhibition at 5 µg/mL: 97%
[3]; [20]
  inhibition at 0.5 µg/mL: 0%
[3]; [21]
  inhibition at 5 µg/mL: 96.3%
[4]
  EC50: 0.03 µg/mL (≈ 0.0881 µM)
[5]
  inhibition at 0.1 µM: 1.8%
  inhibition at 1 µM: 27.9%
  inhibition at 10 µM: 32.8%
[6]; 24 hours, 25° C.
  EC50: 0.004 µg/mL (≈ 0.0117 µM)
[7]; L929, 0.5 μg/ml
  inhibition at 24 h: 6.3%
  inhibition at 48 h: 0%
  inhibition at 72 h: 8.5%
[7]; L929, 5.0 μg/ml
  inhibition at 24 h: 20.2%
  inhibition at 48 h: 65.2%
  inhibition at 72 h: 90.4%
[8]; 0.5 μg/ml
  inhibition at 24 h: 1.1%
  inhibition at 48 h: 1.1%
  inhibition at 72 h: 0%
[8]; 5.0 μg/ml
  inhibition at 24 h: 2.4%
  inhibition at 48 h: 21.3%
  inhibition at 72 h: 6.3%

## CCC(C)(NC(=O)c1cc(Cl)c(N)c(Cl)c1)C(=O)CCl (stereo not drawn) [Compound 1]
[1]
  EC50: 0.2 µg/mL (≈ 0.592 µM)
[2]; [10]
  inhibition at 0.5 µg/mL: 7.8%
[2]; [11]
  inhibition at 5 µg/mL: 10.8%
[2]; [12]
  inhibition at 0.5 µg/mL: 80.4%
[2]; [13]
  inhibition at 5 µg/mL: 75.5%
[2]; [14]
  inhibition at 0.5 µg/mL: 95.4%
[2]; [15]
  inhibition at 5 µg/mL: 78.2%
[3]; [16]
  inhibition at 0.5 µg/mL: 47.6%
[3]; [17]
  inhibition at 5 µg/mL: 88%
[3]; [18]
  inhibition at 0.5 µg/mL: 96.1%
[3]; [19]
  inhibition at 5 µg/mL: 99.3%
[3]; [20]
  inhibition at 0.5 µg/mL: 91.3%
[3]; [21]
  inhibition at 5 µg/mL: 99.2%
[4]
  EC50: 0.06 µg/mL (≈ 0.178 µM)
[5]
  inhibition at 0.1 µM: 23.1%
  inhibition at 1 µM: 29.2%
  inhibition at 10 µM: 34.2%
[5]; 100 μM
  inhibition at 100 µM: 81.1%
[6]; 24 hours, 25° C.
  EC50: 0.02 µg/mL (≈ 0.0592 µM)
[7]; L929, 0.5 μg/ml
  inhibition at 24 h: 1.5%
  inhibition at 48 h: 11.6%
  inhibition at 72 h: 31.3%
[7]; L929, 5.0 μg/ml
  inhibition at 24 h: 19.7%
  inhibition at 48 h: 61.8%
  inhibition at 72 h: 81.1%
[8]; 0.5 μg/ml
  inhibition at 24 h: 1.6%
  inhibition at 48 h: 0%
  inhibition at 72 h: 1.4%
[8]; 5.0 μg/ml
  inhibition at 24 h: 14.7%
  inhibition at 48 h: 13.5%
  inhibition at 72 h: 47.6%
[9]
  EC50: 38 µg/mL (≈ 113 µM)

## CCC(C)(NC(=O)c1cc(Cl)c(C)c(Cl)c1)C(=O)CCl (stereo not drawn) [Compound 10]
[1]
  EC50: 0.2 µg/mL (≈ 0.594 µM)
[2]; L929, 24 h
  inhibition at 0.5 µg/mL: 0%
  inhibition at 5 µg/mL: 20.5%
  inhibition at 25 µg/mL: 19.6%
[2]; L929, 48 h
  inhibition at 0.5 µg/mL: 0%
  inhibition at 5 µg/mL: 80.5%
  inhibition at 25 µg/mL: 86.5%
[2]; L929, 72 h
  inhibition at 0.5 µg/mL: 2.3%
  inhibition at 5 µg/mL: 90.4%
  inhibition at 25 µg/mL: 98%
[3]; 24 h
  inhibition at 0.5 µg/mL: 2.3%
  inhibition at 5 µg/mL: 8.8%
  inhibition at 25 µg/mL: 63.4%
[3]; 48 h
  inhibition at 0.5 µg/mL: 2.1%
  inhibition at 5 µg/mL: 1.4%
  inhibition at 25 µg/mL: 95.7%
[3]; 72 h
  inhibition at 0.5 µg/mL: 6.3%
  inhibition at 5 µg/mL: 0%
  inhibition at 25 µg/mL: 97.3%
[4]
  EC50: 0.06 µg/mL (≈ 0.178 µM)
[6]; 24 h
  EC50: 0.004 µg/mL (≈ 0.0119 µM)
[7]; L929, 0.5 μg/ml
  inhibition at 24 h: 3.7%
  inhibition at 48 h: 0%
  inhibition at 72 h: 2.2%
[7]; L929, 5.0 μg/ml
  inhibition at 24 h: 2.8%
  inhibition at 48 h: 0%
  inhibition at 72 h: 3.5%
[7]; L929, 25.0 μg/ml
  inhibition at 24 h: 2.2%
  inhibition at 48 h: 4.5%
  inhibition at 72 h: 7.6%
[8]; 0.5 μg/ml
  inhibition at 24 h: 0%
  inhibition at 48 h: 0%
  inhibition at 72 h: 3%
[8]; 5.0 μg/ml
  inhibition at 24 h: 1.4%
  inhibition at 48 h: 7.6%
  inhibition at 72 h: 3.5%
[8]; 25.0 μg/ml
  inhibition at 24 h: 6.7%
  inhibition at 48 h: 9.3%
  inhibition at 72 h: 4.8%
[9]
  EC50: 6 µg/mL (≈ 17.8 µM)

Source: patent US6107316A, “Method for treating protozoal infections” (priority 1998, dated 2000)
